Results as given in US11510886B2, “Metformin amino acid compounds and methods of using the same” (Laboratorios Silancs S.A. DE C.V., priority 2016, dated 2022).
Entries after “also recorded” stand apart in the source; their conditions may differ. Where a name gives a salt, the structure may show the parent alone.

Tests used:
[1] = molecular target: T1, GPBP (Mus musculus, UniProt Q9EQG9); test: GPBP phosphorylation state in C2C12 myotubes (Western blot); assay type: cell-based, Mice; details: 3 hours (FIG. 65)
T1 construct: endogenous in cells; host or cells: C2C12 myotubes
T1 sequence (Q9EQG9 1-624): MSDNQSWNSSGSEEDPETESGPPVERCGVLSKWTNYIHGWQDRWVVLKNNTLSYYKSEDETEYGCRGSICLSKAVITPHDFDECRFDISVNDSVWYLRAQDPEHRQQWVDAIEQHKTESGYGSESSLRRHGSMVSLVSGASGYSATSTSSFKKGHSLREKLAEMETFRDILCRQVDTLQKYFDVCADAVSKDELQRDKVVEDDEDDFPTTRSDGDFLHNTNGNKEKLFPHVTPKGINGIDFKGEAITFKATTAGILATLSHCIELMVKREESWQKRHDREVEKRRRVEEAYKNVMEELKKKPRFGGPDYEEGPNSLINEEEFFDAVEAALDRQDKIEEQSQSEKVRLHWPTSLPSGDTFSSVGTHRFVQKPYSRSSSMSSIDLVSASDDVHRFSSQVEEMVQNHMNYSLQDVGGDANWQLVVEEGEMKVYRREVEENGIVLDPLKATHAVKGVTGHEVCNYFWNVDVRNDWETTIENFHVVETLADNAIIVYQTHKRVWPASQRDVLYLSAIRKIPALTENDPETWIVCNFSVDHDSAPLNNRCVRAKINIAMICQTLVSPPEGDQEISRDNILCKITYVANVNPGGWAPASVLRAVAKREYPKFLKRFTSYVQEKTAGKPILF
Experimental: FIG. 65. […]. Similar quantities of each extract were analyzed using Western blot (SDS-PAGE and electrotransfer), with the indicated antibodies and chemiluminescence (ECL Prime, GE Healthcare). The arrow marks a dephosphorylated band, with higher abundance in SLN10-treated cells than in non-treated or SLN1-treated cells.

[2] = system: (NZB×NZW) F1 mice; test: Proteinuria and renal lupus in (NZB×NZW) F1 mice; assay type: in vivo; details: for number of mice with a pathological grade above 3: kidneys at week 35 (FIG. 84)
Experimental: FIG. 81. Proteinuria evolution in (NZB×NZW) F1 mice, treated with a control, SLN1, and SLN10. […] Urine samples were taken periodically and protein concentration was determined. Proteinuria mean value (±SEM) for the mice groups mentioned above is shown in the graph. […] FIG. 82. Criteria used to determine the renal pathological grade in mice, by staining with haematoxylin-eosin.
FIG. 83. […] (NZB×NZW) F1 mice in the assay described in FIG. 81 were sacrificed at week 35; their kidneys were analyzed by staining with haematoxylin-eosin, and their pathological grade was estimated according to criteria in FIG. 82. The number of mice that developed low/moderate (<300 mg/dl) or high (>300 mg/dl) proteinuria at the end of the assay, classified according to their pathological grade, is shown.
FIG. 84. […] The renal pathological grade of each one of the mice in the assay described in FIG. 81, grouped according to treatment, is shown. Intermediate positions represent animals with renal lesions between the higher or lower grades.
FIG. 85. […] (NZB×NZW) F1 mice in the assay described in FIG. 81 were subjected to blood samples periodically, and antibodies titers (anti-ssDNA IgG) were determined using the Mouse anti-ssDNA ELISA kit (Alpha Diagnostic International), following the manufacturer's instructions. In the graph, the mean (±SEM) for each mice group over time is shown.
FIG. 86. cGPBP levels increase and decrease before the introduction of proteinuria in (NZB×NZW) F1 mice. […] Mean values (±SEM) for cGPBP in the mice groups during the indicated weeks.

[3] = system: C2C12 myotubes; test: Glucose in C2C12 myotubes cultured with M1 macrophage conditioned medium; assay type: cell-based, Mice; details: macrophages treated with 10 mM, glucose adjusted to 100 mg/100 mL (FIG. 95)
Experimental: FIG. 95. C2C12 myotubes, treated with a conditioned RAW264.7 M1 macrophages medium (stimulated with LPS and IFN-γ [M1]), accumulate glucose in the culture medium: SLN compounds reduce the “hyperglycemic” effect of the M1 medium. […]; then, the culture media were collected, and their glucose concentration adjusted to 100 mg/100 mL and used to culture C2C12 myoblasts that had been previously differentiated to myotubes in DMEM supplemented with 2% horse serum for 5 days. The glucose concentration in myotubes was determined at several times with a Glucocard (Arkray). C2C12 myotubes, cultured with conditioned media of non-stimulated (cells) macrophages, or similarly stimulated but not treated with a SLN (M1), were used as controls. The initial glucose levels (time 0) are used as a reference (100%) in each of the series.
[…]. Then the culture media were collected, their glucose concentration adjusted to 100 mg/100 mL and used to culture C2C12 myoblasts that had been previously differentiated to myotubes in DMEM supplemented with 2% horse serum for 5 days. The glucose concentration of the myotube cultures was determined at different times with Glucocard (Arkray). The controls used were the C2C12 cultured with media conditioned with no stimulated macrophages (cells) or with M1 conditioned media. The initial glucose levels (time 0) were used as a reference (100%) in each series.

[4] = system: AMPK and GLUT4 in NIH-3T3-L1 adipocytes; test: AMPK activation and GLUT4 in plasma membrane of L1 adipocytes (Western blot); assay type: cell-based, Mice; details: 10 mM, 3 hours
Experimental: . 2 days in culture media supplemented with insulin 1 μg/mL; and 6 days in culture media. […]. Similar quantities of each extract were analyzed using Western blot (SDS-PAGE and electrotransfer), with the indicated antibodies and chemiluminescence (ECL Prime, GE Healthcare). FIGS. 70B-C show pictures of L1 adipocyte cultures treated as in FIG. 70A and exposed to fractioning for protein extraction from plasma membrane by a procedure described above (Nishiumi & Ashida. Biosci Biotechnol Biochem. 2007; 71:2343-6). Briefly, cells were washed with PBS and collected in solution A (Tris 50 mM, pH 8.0, DTT 0.5 mM, 0.1% Nonidet P-40, PMSF 1 mM, leupeptin 5 μg/mL, aprotinin 5 μg/mL, NaF 10 mM, Na3VO4 1 mM) and lysed manually with a Dounce homogenizer (20 pestle movements). Homogenized solutions were centrifuged (1000×g, 10 minutes, 4° C.), cell precipitates were dispersed in solution A, without Nonidet P-40, stored in ice for 10 minutes, occasionally stirred, and centrifuged again (1000×g, 10 minutes, 4° C.). […]. Supernatants were stored at −80° C. until analysis. Equivalent quantities of demembrane extracts were analyzed by Western blot with anti-GLUT4 (Abcam) antibodies. […]

[5] = system: insulin receptor; test: Insulin receptor β subunit in plasma membrane of C2C12 myotubes; assay type: cell-based, Mice; details: 10 mM, 3 hours (FIG. 76), listed as SLN10
Experimental: FIG. 76. Metformin lysinate promotes the accumulation of insulin receptor β subunit in plasma membrane. C2C12 cells were differentiated for 5 days in DMEM supplemented with 2% horse serum; then, cultures were treated for 3 hours with SLN1 or SLN10 10 mM, or with vehicle (control) at 37° C. Similar quantities of each extract were analyzed by Western blot with insulin receptor subunit (IRP) specific antibodies.

[6] = Metformin association with lysine in aqueous solution (1H NMR titration); assay type: physicochemical; details: 1×PBS, pH 7.5, WINEQNMR2
Experimental: Specifically, 500 μL of a 10 mM lysine solution in buffer […] were introduced in an NMR tube, and the pH was adjusted to 7.5; moreover, […] of deuterated methanol was added, and the NMR proton spectrum was recorded (^1H). […] Increasing amounts of the metformin dissolution were added to the amino acid dissolution, and the ^1H NMR spectrum was recorded after each addition until reaching 20 equivalents.
The alpha proton signal of lysine (triplet to 3.76 ppm, FIG. 100) first shifted to lower […] and then to higher values. […] The complexation constant was calculated to be 828±42 (FIG. 101).

Compound: CN(C)C(=N)N=C(N)N [Metformin hydrochloride, metformin hydrochloride, reference compound]
- GPBP phosphorylation state in myotubes [1]: barely altered the phosphorylation state
- deaths ([2]; from week 33 onwards): began to die
- number of mice with a pathological grade above 3 [2]: 7
- glucose concentration in myotubes kept in M1 macrophage-conditioned medium ([3]; listed as SLN1, hydrochloride): slowed progression towards “hyperglycemia”
- glucose concentration in myotubes kept in M1 macrophage-conditioned medium ([3]; listed as metformin HCl, hydrochloride): slowed down the progression towards hyperglycemia

Compound: metformin lysinate
- GPBP phosphorylation state in myotubes ([1]; listed as SLN10): induce GPBP dephosphorylation; also recorded: induced a remarkable GPBP dephosphorylation
- AMPK activation [4]: activates AMPK
- GLUT4 accumulation in the plasma membrane [4]: induces a GLUT4 accumulation in the plasma membrane
- accumulation of insulin receptor in the plasma membrane [5]: promotes the accumulation of insulin receptor in the plasma membrane
- proteinuria ([2]; 100 mg/kg/day, IP 5 days from week 16, then oral in drinking water, vs control, listed as SLN10): most effective; also recorded: significantly less proteinuria; also recorded: reduced proteinuria
- autoantibody (anti-ssDNA IgG) titers ([2]; FIG. 85, Control vs. SLN10 p=0.0238): reduces antibodies titers; also recorded: reduced titers by half
- number of mice with a pathological grade above 3 [2]: 3
- circulating GPBP levels (cGPBP) ([2]; plasma, before steady increase of proteinuria (FIG. 86)): showed no increase
- glucose concentration in myotubes kept in M1 macrophage-conditioned medium [3]: reduced the glucose concentration to hypoglycemic levels
- glucose concentration in myotubes kept in M1 macrophage-conditioned medium ([3]; listed as SLN10): took them to “hypoglycemic” levels
- complexation constant [6]: 828±42
